Reference: patent publication US6506785B2, “Treating or preventing the early stages of degeneration of articular cartilage or subchondral bone in mammals using carprofen and derivatives” (Pfizer, Inc., priority 1998, dated 2003)
Values belong to the compound of their own block, whether it stands above or below them.

Experiments:
[1] = tested on: cartilage homeostasis in osteoarthritic joints; settings: compared with control joints; cited from earlier work
[2] = tested on: atrophied mammal articular cartilage; settings: in vivo; cited from earlier work
[3] = Clearance rates of carprofen-genus enantiomers; settings: in vivo
Text: The above-recited ranges of dosage amounts, which are also recited elsewhere herein, are for racemic mixtures of compounds of Formula (I) having a chiral carbon, or for single compounds of Formula (I) where no chiral carbon atom is present. As will be appreciated by the person of ordinary skill in this art, i.e., a practicing veterinarian or a person with an advanced degree and experience in animal health issues, where other than a racemic mixture of compounds of Formula (I) is involved, the chondroprotective therapeutically effective amount will vary. For example, if 85% of the mixture is (S)-enantiomer, that will ordinarily tend to reduce the necessary dosage. […] However, the degree of difference between the activities of the two enantiomers must also take into account other differences, especially differences in pharmacokinetics between the two enantiomers, in determining the proper dosage. […] This, in turn, will have a calculable impact on the amount of active compound to be administered. Ordinarily, such determinations will be made on a case-by-case basis by the artisan, but these are well within the ordinary skill of the art, as is instituting the methods whereby data necessary for the supporting calculations may be obtained.

[4] = tested on: cultured osteoarthritic mammal chondrocytes / cartilage explants; settings: cited from earlier work
[5] = in vivo, po
Protocol: Accordingly, a useful controlled release dosage form of carprofen in accordance with the present invention is one which maintains a carprofen plasma level greater than 2 μg/mL for most of the day after a single oral dose at 2 mg/lb.
Immediate release carprofen dosage forms containing doses of 1.8, 1.6, and 1.4 mg/lb maintain a plasma carprofen concentration above 10 μg/mL for 9.5 hrs, 8.5 hrs, and 7.5 hrs, respectively. Preferred 1.8 mg/lb oral controlled release carprofen dosage forms maintain a plasma carprofen concentration above 10 μg/mL for greater than 9.5 hrs. Likewise, the threshold durations for 1.6 mg/lb and 1.4 mg/lb doses are 8.5 hrs and 7.5 hrs, respectively. The performance characteristics for preferred oral controlled release carprofen dosage forms at doses higher than 2 mg/lb or less than 1.4 mg/lb can be similarly calculated, assuming linear pharmacokinetics. More preferred oral controlled release carprofen dosage forms are those which maintain a plasma carprofen concentration greater than 10 μg/mL for a period of time greater than or equal to that observed when an immediate release carprofen dosage form is dosed at any higher dose. […]

[6] = tested on: articular cartilage; settings: cited from earlier work

Compound: polysulfated glycosaminoglycan [PSGAG]
microscopic structural alteration [1]: decreased microscopic structural alteration
proteinase activity [1]: decreased proteinase activity
proteoglycan in cartilage [1]: retention of proteoglycan in cartilage

Compound: hyaluronic acid [HA]
effect on atrophied articular cartilage [2]: chondrostabilizing effect

Compound: C[C@@H](C(=O)O)c1ccc2c(c1)[nH]c1ccc(Cl)cc12 (single isomer, unassigned) [(−)(R) enantiomer]
clearance rates, (+)(S) versus (−)(R) enantiomer [3]: significant difference in clearance rates

time plasma carprofen levels are maintained above approximately 10 μg/mL [5]: 10.5 h
Compound: CC(C(=O)O)c1ccc2c(c1)[nH]c1ccc(Cl)cc12 (stereo not drawn) [carprofen, 6-chloro-α-methyl-9H-carbazole-2-acetic acid]
cartilage GAG synthesis ([4]; carprofen concentrations of 1 and 10): selectively stimulating new cartilage GAG synthesis
cartilage proteoglycan breakdown ([4]; carprofen concentrations of 1 and 10 μL/ml): without any direct effect on cartilage proteoglycan breakdown

Compound: C[C@H](C(=O)O)c1ccc2c(c1)[nH]c1ccc(Cl)cc12 (single isomer, unassigned) [(+)(S) enantiomer]
clearance rates, (+)(S) versus (−)(R) enantiomer [3]: significant difference in clearance rates

Compound: Pentosan polysulfate [PPS]
articular cartilage damage ([6]; gross and histologic evaluation): significantly decrease articular cartilage damage
articular cartilage proteoglycan content ([6]; in vivo): maintenance of normal articular cartilage proteoglycan content
